From ChEMBL document CHEMBL4418303, “1-cyano-pyrrolidine derivatives as inhibitors of usp30” (2017)

target: T1, Ubiquitin carboxyl-terminal hydrolase 30 (Homo sapiens, UniProt Q70CQ3); test: Inhibition of untagged human USP30 catalytic domain (57 to 517 residues) expressed in Escherichia coli using TAMRA labeled ubiquitin peptide as substrate preincubated for 30 min followed by substrate addition and measured after 2 hrs by fluorescence polarization assay
T1 sequence (Q70CQ3 whole entry): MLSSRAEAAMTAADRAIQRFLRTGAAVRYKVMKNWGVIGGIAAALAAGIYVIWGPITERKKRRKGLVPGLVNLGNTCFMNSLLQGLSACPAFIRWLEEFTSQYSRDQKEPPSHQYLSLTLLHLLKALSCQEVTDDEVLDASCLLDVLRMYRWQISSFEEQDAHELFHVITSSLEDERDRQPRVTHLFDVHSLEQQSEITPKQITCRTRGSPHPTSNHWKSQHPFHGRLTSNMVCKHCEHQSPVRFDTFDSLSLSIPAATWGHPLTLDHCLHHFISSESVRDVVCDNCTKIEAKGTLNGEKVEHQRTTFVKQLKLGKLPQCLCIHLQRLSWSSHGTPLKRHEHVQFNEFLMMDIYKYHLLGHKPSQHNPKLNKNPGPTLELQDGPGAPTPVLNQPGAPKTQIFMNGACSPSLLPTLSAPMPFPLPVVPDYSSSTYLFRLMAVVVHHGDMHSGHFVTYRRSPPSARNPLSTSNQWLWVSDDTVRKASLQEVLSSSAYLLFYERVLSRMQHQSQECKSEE

First: CN1c2ccc(-c3ccccc3)cc2CN([C@@H]2CCN(C#N)C2)S1(=O)=O
Second: CN1c2ccccc2CN([C@@H]2CCN(C#N)C2)S1(=O)=O
The IC50 of the first is lower: 100 to 1000 nM for the first, 1000 to 10000 nM for the second. The first is the more potent here.

In the case of N#CN1CC[C@@H](N2Cc3ccnc(N4CCOCC4)c3NS2(=O)=O)C1, the IC50 is reported as 1000 to 10000 nM.
